Assay: Preclinical incorporation dosimetry: whole-body PET/CT in piglets, scaled to human, OLINDA 2.1, ICRP103
Format: in vivo, juvenile pigs
Experimental: Three piglets (age: ~6 weeks, weight: ~13–15 kg) were fasted on the day of imaging and received an intranuscular. injection of 1 mL azaperone and 4 mL ketamine to introduce anesthesia. […] During narcosis, the animals maintained spontaneous respiration and no mandatory ventilation was applied. The subjects were sequentially imaged after an iv injection (contralateral ear vein) of 156 ± 54 MBq [^18F]FACH (0.63 ± 0.49 µg) in a PET/CT system (Biograph16, SIEMENS, Erlangen, Germany). The piglets were positioned prone with legs alongside the body on a custom-made plastic trough including a piglet head-holder (Figure 5). The PET acquisition was divided into a sequential (4 × 9 min, 3 × 12 min) and a static part (1 × 24 min, 1 × 30 min, 1 × 36 min), each of which was preceded by a low-dose CT to acquire structural data for attenuation correction (AC) and anatomical orientation (Figure 6). Post mortem, the urine was collected by bladder punctuation, weighted, and divided into three 1 mL samples for activity measurements in a gamma-counter (Packard Cobra II 5003 Auto Gamma Counting System, GMI, Ramsey, MN, USA).
PET data reconstruction was done using low-dose CT attenuation correction (AC) and an iterative OSEM algorithm with 4 iterations and 8 subsets. As the PET/CT system is in daily clinical use, it is periodically subjected to detector normalization and activity calibration. Furthermore, all peripheral activity-measuring devices to be used for the investigation (dose calibrator, gamma counter) are cross-calibrated in terms of timing and a radioactivity adjustment.
The image data were analyzed with ROVER (ABX, Radeberg, Germany; v. 3.0.46h). The organs were identified and manually delineated using 3D volumes of interest (VOI). The CT data were used for anatomical orientation and for image registration with the PET data. Relevant source organs like brain, gall bladder, large intestine, small intestine, stomach, heart, kidneys, liver, lungs, pancreas, red marrow (backbone, pelvis, sternum), spleen, thyroid, testes, skeleton (bone), and the urinary bladder were delineated and the time–activity data transformed into percentage of injected dose (%IDorgan) with Equation (2). (2) %IDorgant=Aorgant×cscant/A0t [%] where Aorgant is the activity in the organ at the time t; cscant is a calibration factor representing the theoretical body activity (derived from a whole body mask of a volume that equals the body dimentions of the animal) decay corrected to t and divided by the imaged body activity in each image frame at the time t, and A0t is the injected activity decay corrected to t0.
The dose calculation has been described by our group in detail before. Briefly, due to differences in weight, size, and metabolic rates between the animal species and the human volunteers, it is necessary to map the preclinical extracted biodistribution data to human circumstances. Thus, the animal biokinetic data (time scale and %ID values) were adapted to the human circumstances according to [22] to fit the human weight, size, and metabolic rates (Equations (3) and (4)). (3) thuman=tanimal[mhuman/manimal]^0.25 (4) [%ID]/organhuman=[%ID]/ganimal×mTBanimal[g]/mTBhuman[g]×morganhuman[g]
The TIACs were estimated by exponential fitting and the dosimetry estimation was performed using OLINDA/EXM software (v. 2.1). Finally, organ doses (OD) were estimated and multiplied by tissue weighting factors as published in ICRP103 [20].

[1] = mean of three piglets, ICRP103 wT
[2] = mean of three piglets, adult male model
[3] = mean ± SD, three piglets, ICRP103 wT

## CCCN(CCC[18F])c1ccc(/C=C(\C#N)C(=O)O)c(OC)c1 [[^18F]FACH, (E)-2-cyano-3-{4-[(3-[^18F]fluoropropyl)(propyl)amino]-2-methoxyphenyl}acrylic acid]
FACHpig3
  Effective dose contribution HT wT, Heart Wall: 8.18E-05 mSv/MBq
  Effective dose contribution HT wT, Kidneys: 2.59E-04 mSv/MBq
  Effective dose contribution HT wT, Left colon: 5.06E-04 mSv/MBq
  Effective dose contribution HT wT, Liver: 1.37E-03 mSv/MBq
  Effective dose contribution HT wT, Lungs: 9.15E-04 mSv/MBq
  Effective dose contribution HT wT, Osteogenic Cells: 2.03E-04 mSv/MBq
  Effective dose contribution HT wT, Pancreas: 7.24E-05 mSv/MBq
  Effective dose contribution HT wT, Prostate: 5.95E-05 mSv/MBq
  Effective dose contribution HT wT, Rectum: 2.92E-04 mSv/MBq
  Effective dose contribution HT wT, Red Marrow: 1.47E-03 mSv/MBq
  Effective dose contribution HT wT, Right colon: 9.75E-04 mSv/MBq
  Effective dose contribution HT wT, Salivary Glands: 6.33E-05 mSv/MBq
  Effective dose contribution HT wT, Small Intestine: 9.09E-05 mSv/MBq
  Effective dose contribution HT wT, Spleen: 7.43E-05 mSv/MBq
  Effective dose contribution HT wT, Stomach Wall: 9.98E-04 mSv/MBq
  Effective dose contribution HT wT, Testes: 2.90E-04 mSv/MBq
  Effective dose contribution HT wT, Thymus: 6.50E-05 mSv/MBq
  Effective dose contribution HT wT, Thyroid: 2.77E-04 mSv/MBq
  Effective dose contribution HT wT, Total Body: 0.00E+00 mSv/MBq
  Effective dose contribution HT wT, Urinary Bladder Wall: 3.52E-03 mSv/MBq
  Organ equivalent dose HT, Adrenals: 1.47E-02 mSv/MBq
  Organ equivalent dose HT, Brain: 4.10E-03 mSv/MBq
  Organ equivalent dose HT, Esophagus: 8.11E-03 mSv/MBq
  Organ equivalent dose HT, Eyes: 5.63E-03 mSv/MBq
  Organ equivalent dose HT, Gallbladder Wall: 8.72E-02 mSv/MBq
  Organ equivalent dose HT, Heart Wall: 8.86E-03 mSv/MBq
  Organ equivalent dose HT, Kidneys: 2.81E-02 mSv/MBq
  Organ equivalent dose HT, Left colon: 1.04E-02 mSv/MBq
  Organ equivalent dose HT, Liver: 3.42E-02 mSv/MBq
  Organ equivalent dose HT, Lungs: 7.62E-03 mSv/MBq
  Organ equivalent dose HT, Osteogenic Cells: 2.03E-02 mSv/MBq
  Organ equivalent dose HT, Pancreas: 7.85E-03 mSv/MBq
  Organ equivalent dose HT, Prostate: 1.29E-02 mSv/MBq
  Organ equivalent dose HT, Rectum: 1.27E-02 mSv/MBq
  Organ equivalent dose HT, Red Marrow: 1.22E-02 mSv/MBq
  Organ equivalent dose HT, Right colon: 2.01E-02 mSv/MBq
  Organ equivalent dose HT, Salivary Glands: 6.33E-03 mSv/MBq
  Organ equivalent dose HT, Small Intestine: 9.84E-03 mSv/MBq
  Organ equivalent dose HT, Spleen: 8.05E-03 mSv/MBq
  Organ equivalent dose HT, Stomach Wall: 8.32E-03 mSv/MBq
  Organ equivalent dose HT, Testes: 7.26E-03 mSv/MBq
  Organ equivalent dose HT, Thymus: 7.04E-03 mSv/MBq
  Organ equivalent dose HT, Thyroid: 6.93E-03 mSv/MBq
  Organ equivalent dose HT, Total Body: 8.63E-03 mSv/MBq
  Organ equivalent dose HT, Urinary Bladder Wall: 8.80E-02 mSv/MBq
[1]
  ED Contr., Adrenals: 1.31 × 10^−4 mSv/MBq
  ED Contr., Brain: 4.69 × 10^−5 mSv/MBq
  ED Contr., Esophagus: 3.61 × 10^−4 mSv/MBq
  ED Contr., Eyes: 0.00 mSv/MBq
  ED Contr., Gall Bladder Wall: 4.65 × 10^−4 mSv/MBq
  ED Contr., Heart Wall: 8.72 × 10^−5 mSv/MBq
  ED Contr., Kidneys: 2.42 × 10^−4 mSv/MBq
  ED Contr., Left Colon: 6.63 × 10^−4 mSv/MBq
  ED Contr., Liver: 9.34 × 10^−4 mSv/MBq
  ED Contr., Lungs: 9.46 × 10^−4 mSv/MBq
  ED Contr., Osteogenic Cells: 2.12 × 10^−4 mSv/MBq
  ED Contr., Pancreas: 2.81 × 10^−4 mSv/MBq
  ED Contr., Prostate: 6.01 × 10^−5 mSv/MBq
  ED Contr., Rectum: 3.18 × 10^−4 mSv/MBq
  ED Contr., Red Marrow: 1.67 × 10^−3 mSv/MBq
  ED Contr., Right Colon: 1.16 × 10^−3 mSv/MBq
  ED Contr., Salivary Glands: 7.90 × 10^−5 mSv/MBq
  ED Contr., Small Intestine: 1.71 × 10^−4 mSv/MBq
  ED Contr., Spleen: 8.37 × 10^−5 mSv/MBq
  ED Contr., Stomach Wall: 1.31 × 10^−3 mSv/MBq
  ED Contr., Testes: 3.38 × 10^−4 mSv/MBq
  ED Contr., Thymus: 7.69 × 10^−5 mSv/MBq
  ED Contr., Thyroid: 2.83 × 10^−4 mSv/MBq
  ED Contr., Total Body: 0.00 mSv/MBq
  ED Contr., Urinary Bladder Wall: 2.50 × 10^−3 mSv/MBq
[2]
  OD, Adrenals: 1.42 × 10^−2 mSv/MBq
  OD, Brain: 4.69 × 10^−3 mSv/MBq
  OD, Esophagus: 9.03 × 10^−3 mSv/MBq
  OD, Eyes: 6.91 × 10^−3 mSv/MBq
  OD, Gall Bladder Wall: 5.04 × 10^−2 mSv/MBq
  OD, Heart Wall: 9.46× 10^−3 mSv/MBq
  OD, Kidneys: 2.62 × 10^−2 mSv/MBq
  OD, Left Colon: 1.37 × 10^−2 mSv/MBq
  OD, Liver: 2.33 × 10^−2 mSv/MBq
  OD, Lungs: 7.88 × 10^−3 mSv/MBq
  OD, Osteogenic Cells: 2.12 × 10^−2 mSv/MBq
  OD, Pancreas: 3.05 × 10^−2 mSv/MBq
  OD, Prostate: 1.30 × 10^−2 mSv/MBq
  OD, Rectum: 1.38 × 10^−2 mSv/MBq
  OD, Red Marrow: 1.39 × 10^−2 mSv/MBq
  OD, Right Colon: 2.40 × 10^−2 mSv/MBq
  OD, Salivary Glands: 7.90 × 10^−3 mSv/MBq
  OD, Small Intestine: 1.84 × 10^−2 mSv/MBq
  OD, Spleen: 9.08 × 10^−3 mSv/MBq
  OD, Stomach Wall: 1.09 × 10^−2 mSv/MBq
  OD, Testes: 8.45 × 10^−3 mSv/MBq
  OD, Thymus: 8.33 × 10^−3 mSv/MBq
  OD, Thyroid: 7.08 × 10^−3 mSv/MBq
  OD, Total Body: 9.76 × 10^−3 mSv/MBq
  OD, Urinary Bladder Wall: 6.26 × 10^−2 mSv/MBq
Mean ± SD, three piglets
  organ dose, gall bladder: 50.4 ± 37.5 µSv/MBq
  organ dose, kidneys: 26.2 ± 2.2 µSv/MBq
  organ dose, liver: 23.3 ± 13.6 µSv/MBq
  organ dose, pancreas: 30.5 ± 27.3 µSv/MBq
  organ dose, right colon: 24.0 ± 7.4 µSv/MBq
  organ dose, urinary bladder: 62.6 ± 28.9 µSv/MBq
[3]
  contribution to the ED, lungs: 0.9 ± 0.05 µSv/MBq
  contribution to the ED, red marrow: 1.7 ± 0.3 µSv/MBq
  contribution to the ED, right colon: 1.2 ± 0.4 µSv/MBq
  contribution to the ED, stomach: 1.3 ± 0.4 µSv/MBq
  contribution to the ED, urinary bladder: 2.5 ± 1.1 µSv/MBq
Piglet biokinetic data, ICRP103 wT
  ED to humans, preclinical: 12.4 µSv/MBq
~300 MBq iv, corrected for up to 40% underestimation
  ED to humans, corrected: about 6.2 mSv

From publication PMC7248880, “Preclinical Incorporation Dosimetry of [^18F]FACH—A Novel ^18F-Labeled MCT1/MCT4 Lactate Transporter Inhibitor for Imaging Cancer Metabolism with PET” (Molecules, 2020)
